Results reported in patent publication US10858357B2, “Water-soluble myosin 2 inhibitors for the treatment of neurological, neuropathic or psychiatric diseases” (PARIS SCIENCES ET LETTRES-QUARTIER LATIN, priority 2016, dated 2020).

Experiments:
[1] = Fluorescence emission spectrum; format: physicochemical; settings: 5 μM, λexc=350 nm, assay buffer 0.1% DMSO
Protocol: (§1) Fluorescence emission spectra (λexc=350 nm) were recorded in assay buffer containing 0.1% DMSO applying the inhibitors at 5 μM concentrations. The photoconversion measurements were carried out using 5 μM neurelaxin-A in assay buffer and irradiating the samples at 480±10 nm for 0, 5, 10 and 15 minutes using a Fluorescence Spectrometer (F900, Edinburgh Instruments) equipped with a 450 W Xenon Lamp. Their absorbance spectra were measured at each time point.
Fluorescence emission spectra (λexc.=350 nm) were recorded in assay buffer containing 0.1% DMSO comprising the inhibitor at 5 μM concentration.

[2] = test system: EGFP-α-tubulin H2B-mCherry HeLa Kyoto cells; assay: HeLa cell toxicity, 12-hour confocal time-lapse imaging; format: cell-based, human; settings: 50 μM, 12 hours imaging
Protocol: For phototoxicity experiments, confocal time-lapse imaging of HeLa Kyoto H2B-mCherry eGFP-α-tubulin cells for 12 hours was performed in DMEM further supplemented with 25 mM HEPES in order to achieve CO2 independent media. Confocal time-lapse imaging was performed on a Zeiss LSM 710 using a Plan Apo 20×/0.8 objective, with the following parameters: 2% laser intensity at λexc=488 nm, 3% laser intensity at λexc=543 nm, 1.2× zoom, average 4, line step 1, 1000×1000 pixels, 0.35 μm pixel size, 0.65 μs dwell time, 3 slice/z-stack with 7 μm between slices at every 10 minutes.
To test the cytotoxicity of neurelaxin-A in live-cell fluorescence microscopy, time-lapse EGFP-α-tubulin H2B-mCherry labeled HeLa Kyoto cells were imaged in a confocal microscope (FIG. 4a).
Cells were treated with 50 μM neurelaxin-A and imaged for 12 hours applying 3 z-sections every 10 minutes.

zebrafish heart muscle = assay: Zebrafish heart rate and amplitude of heart muscle contraction; format: in vivo, zebrafish (Danio rerio); settings: 20 μM, within three hours, 6 dpf zebrafish
Protocol: For the fast escape response experiments, 6 dpf larvae were placed in 50 μl drops on a plastic plate. They were treated with 0, 2, 5, 10 or 20 μM of neurelaxin-A. To evoke C-start response, acoustic stimuli were applied according to the following protocol: 10 taps were carried out with 1 minute intervals every hour for 4 hours. The force of tapping was standardized. Images were recorded with Ximea Camera (MQ003MG-CM) at 500 fps for 2 s. Data were analyzed by Flote software version 2.1 and maximal angular velocity parameters of C-start reflex were quantified. For the experiments investigating the effect of the inhibitor on the heart muscle of zebrafish, 6 dpf larvae were embedded in 1% agarose and kept in E3 in the presence of 20 μM neurelaxin-A. Videos were taken by a camera at 15.1 fps before and after inhibitor treatment every hour for 3 hours.
Transgenic Tg(−8.0cldnb:lynEGFP)^zf106 (cldnb:gfp) (Haas, P. & Gilmour, D., Developmental Cell 10, 2006, pp 673-680) zebrafish (Danio rerio) were maintained in the animal facility of Eötvös Loránd University. For the experiments investigating the skeletal and heart muscle of zebrafish, 6 dpf embryos were used. […]
Heart beating and the amplitude of heart muscle contraction were monitored before and after the addition of 20 μM of neurelaxin-A to the zebrafish, imaging the same embryos every hour for three hours.

neurons = assay: Oxidative stress resistance (H2O2) of neurons; format: cell-based; settings: 30 μM H2O2
Protocol: Hydrogen Peroxide (H2O2) is used for generating reactive oxygen species and consequently, leading to oxidative stress and neuronal loss.
In this experiment, the neurons were first incubated with 30 μM of H2O2 or not (witness sample). Then, the neurons were treated with DMSO solutions with or without Neurelaxin-A.

spinal cord injury = assay: Spinal cord complete section, BBB locomotor scoring; format: in vivo, rat; settings: 10 mM in 10% DMSO/90% aCSF at injury site; from day 7; non-treated stays under 3
Protocol: In this experiment, a complete section of the spinal cord on animals was carried out. Then, neurelaxin A administration was carried out at the injury site, 5-10 min after the injury was performed. This neurelaxin-A administration was carried out via a diluted solution of 10 mM of neurelaxin A in a 10% DMSO/90% aCSF (artificial cerebrospinal fluid) solution, leading to an orange bright precipitate that is slowly soluble into the injury site. Finally, a BBB (Basso, Beattie and Bresnahan) analysis is performed in order to study the sequence of functional locomotor recovery patterns. The scale (0-21) represents sequential recovery stages and categorizes combinations of rat joint movement, hindlimb movements, stepping, forelimb and hind limbcoordination, trunk position and stability, paw placement and tail position.
According to this test, any drug treatment which may increase the BBB scores may be considered neuroprotective in animal models.
In this experiment, treated animals (n=3) were undistinguishable from non-treated animals (n=3). The BBB scoring scale ranges from 0 to 21.

HeLa cells = assay: HeLa wound healing (motility) assay; format: cell-based, human; settings: 20 μM, after 24 h, uncoated glass; control 30.6±5.4%
Protocol: For wound healing assays, 200 μl of HeLa cells were plated on 35 mm borosilicate glass imaging dishes at 300,000 cells/ml concentrations and incubated for 24 hours. Prior to wounding, cells were incubated in 20 μM of neurelaxin-A for an hour. After one hour, scratches were made with pipette tips in monolayer cultures and the motility of cells for occupying the wound was monitored for 24 hours with a Foculus Digital Camera (IEEE1394). Analysis of cell motility was carried out by ImageJ, by measuring the distance between two lines fitted on the two sides of the approaching cell edges created by the pipette tips.
To test the effect of neurelaxin-A on the motility of HeLa cells on uncoated glass surface, wound-healing assays were carried out in the absence and in the presence of 20 μM concentrations of the inhibitor.
After 24 h, the percent of migration was measured for each sample. The control corresponds to a sample in the absence of inhibitor.

[3] = test system: cannabinoid-induced working memory loss; assay: Novel object recognition (NOR) test with CP55,940; format: in vivo
Protocol: In this experiment, a novel object recognition (NOR) test was performed.
In this test animals are presented to two objects and it will explore them for a while. After, one of the objects is changed for a new and different one. Under normal circumstances animals will be attracted to the novel object and will spend more time exploring it, by comparison to the older and already known object. Animals with memory deficit will explore both objects equally.
The synthetic cannabinoid CB1R agonist CP55,940 is administrated 1 hour prior to the familiarization step. Thirty minutes prior to the familiarization animals are either treated or not with neurelaxin-A.

[4] = Photostability under 480±10 nm irradiation; format: physicochemical; settings: 5 μM, 480±10 nm for 0, 5, 10 and 15 minutes
Protocol: as §1
Neurelaxin-A's photostability was measured by irradiating the compound in assay buffer at 480±10 nm for 0, 5, 10 and 15 minutes and recorded the absorption spectra afterwards (FIG. 2C).

Cc1ccc2c(c1)C(=O)C1(O)CCN(c3ccc(N)cc3)C1=N2 (stereo not drawn) [Neurelaxin-A, 1-(4-aminophenyl)-3a-hydroxy-6-methyl-3,3a-dihydro-1H-pyrrolo[2,3-b]quinolin-4(2H)-one]
fluorescence signal [1]: no fluorescence signal | signs of toxicity in HeLa Kyoto cells [2]: did not show any signs of toxicity | amplitude of heart muscle contraction (zebrafish heart muscle): dropped drastically | neuronal survival and axon maintenance under oxidative stress (neurons): increased | BBB scoring (spinal cord injury): significant increasing of BBB scoring | relative migration of HeLa cells (100% = total diameter of the wound) (HeLa cells): 62.6±3.6% | NOR test: effect on memory without cannabinoid ([3]; animals non-treated with CP55,940): does not impact negatively the memory | NOR test: memory after cannabinoid exposure ([3]; pre-treated animals, CP55,940 exposure): are not affected by the cannabinoid exposure | photostability: absorption spectrum after irradiation [4]: has not been altered
